Article PMC11061149, “Protein mimetic 2D FAST rescues alpha synuclein aggregation mediated early and post disease Parkinson’s phenotypes” (Nature Communications, 2024)
Several values for one entry are separate records, joined by “and”; a condition that tells them apart may be missing. Equal entries are not always repeated.

Tests used:
[1] = tested on: HEK293 cells stably expressing αS-A53T-YFP; experiment: ProteoStat dye assay, ligand pre-treatment, αS fibers templated intracellular aggregation; format: cell-based, human; conditions: ligand 10 µM for 16 h, washed, then 5 µM αS fibers for 24 h
Description: We further tested NS163 against intracellular αS aggregation using same HEK293 cells (express αS-A53T-YFP)[23],[24],[50]. In this assay, we added NS163 (10 µM) to the HEK cells and incubated the cells for 16 h, washed the cells and treated with the preformed fibers of αS (5 µM monomer) and incubated for an additional 24 h. The ProteoStat dye-based intensity of HEK cells treated with αS fibers was ~4 fold higher than the control (no fibers) (Supplementary Fig. 19). NS163 was a very potent antagonist as it was able to reduce the intracellular inclusions by 80% at 10 µM, measured using the ProteoStat dye-based assay (Supplementary Fig. 19). Under matched conditions, 10 µM NS132 was able to reduce the intracellular inclusions by 57% (Supplementary Fig. 19). The higher antagonist activity of NS163 than NS132 is likely due to the better cell permeability of the former. […] It is important to point out that our potent ligands (NS163 and NS132) were able to inhibit αS preformed fibers templated aggregation of both monomeric WT αS and A53T αS mutant. It has been shown that the WT αS fibers templated aggregation of WT αS and its mutants is predominantly dependent on the interaction of the fibers with the N-terminus of the monomeric WT αS and its mutants[62],[68],[69]. […]

αS PMCA samples = molecular target: T1, αS PMCA samples (Homo sapiens, UniProt P37840); experiment: Proteinase K digestion of PMCA samples; format: biochemical; conditions: cycle three to cycle five, in the presence of NS132
T1 construct: made in house; host or cells: E. coli BL21(DE3)
Description: A Protease K (PK) solution at 50 μg/mL (IBI Scientific, Dubuque, IA) in digestion buffer (10 mM Tris, pH 8.0, 2 mM CaCl2) was diluted (0.1 eq.) into 30 μL of PMCA solution (with or without NS132) and incubated for 30 min at 37 °C. Subsequently, the samples were diluted (1:1, v/v) in SDS Protein Gel Loading Dye 2× (Quality Biological, Gaithersburg, MD) and loaded on Mini-PROTEAN TGX Stain-Free Protein Gel (BioRad, Hercules, CA). The gel was stained using the Fairbanks staining method and imaged using ChemiDoc MP (BioRad, Hercules, CA).

UA196 worms = experiment: Motility assay of UA196 worms; format: in vivo, C. elegans
Description: Briefly, all worm strains were bleached at the same time and the eggs were incubated on PLATE 1. On day two, the worms were divided into two batches. […] The liquid media for PLATE 4 A/B was prepared with 67.28% (v/v) of M9 buffer, 75 μM FUDR, 0.1% of 1 M magnesium sulfate (v/v), 0.1% of 1 M calcium chloride (v/v), 2.5% of 1 M potassium phosphate solution (pH 6, v/v), and 30% (v/v) of OP50 (0.5 OD600nm). […] To test the effect of each ligand on disease worm strains (NL5901 or UA196), there were four conditions were used in PLATE 4 A/B: […] The assay was started on day four using the WMicroTracker ARENA plate reader (Phylumtech, Santa Fe, Argentina) at 20 °C for 1 h per day over a 14-day period at intervals of 24 h. The WMicroTracker ARENA plate reader uses a large array of infrared light microbeams in each well of the plate to detect the interference caused by the movement of the worms. The output by the ARENA plate reader is an average of the overall movement of all worms present in each well, which is denoted as the motility of the worms in each well. […] After collecting the data each day, the PLATE 4 A/B was again placed on the shaker (100 rpm) at 20 °C in the incubator. The PLATE 4 A/B was on the on the shaker (100 rpm) at 20 °C in the incubator the whole duration of the experiment except only when the reading was collected on the WMicroTracker ARENA plate reader for 1 h.

proteinase K (PK) resistance of PMCA samples, in words (αS PMCA samples): completely degraded
Compound: Cc1ccc(NC(=O)c2ccc(NC(=O)c3ccc([N+](=O)[O-])c(NCCc4c[nH]c5ccccc45)n3)c(NCC3CCCCC3)n2)c(OCC(=O)O)n1 [NS132]
reduction of intracellular inclusions (ProteoStat) [1]: 57%
motility of UA196 worms, in words (UA196 worms; 50 µM ligand (day two and day four), during the aging process): noticeable rescue
Motility (activity counts) (UA196 worms; UA196+NS132, Day 4, per trial): 206 and 197 and 180 and 188
Motility (activity counts) (UA196 worms; UA196+NS132, Day 5, per trial): 205 and 178 and 179 and 183
Motility (activity counts) (UA196 worms; UA196+NS132, Day 6, per trial): 161 and 191 and 157 and 201
Motility (activity counts) (UA196 worms; UA196+NS132, Day 7, per trial): 139 and 152 and 174 and 165
Motility (activity counts) (UA196 worms; UA196+NS132, Day 8, per trial): 150 and 125 and 135 and 134
Motility (activity counts) (UA196 worms; UA196+NS132, Day 9, per trial): 143 and 94 and 105 and 78
Motility (activity counts) (UA196 worms; UA196+NS132, Day 10, per trial): 97 and 68 and 112
Motility (activity counts) (UA196 worms; UA196+NS132, Day 13, per trial): 24 and 17 and 22 and 19
Motility (activity counts) (UA196 worms; UA196+NS132, Day 14, per trial): 19 and 14 and 23
